PubChem BioAssay AID222 (DTP/NCI, 2004)
Values joined by “and” are separate entries in the source; they are usually repeats but may differ in a detail not shown here. Equal values may be shown once. Toxic doses and inconclusive results are not listed.

System: C57BL/6 mice, intracerebral ependymoblastoma, median survival T/C
Test: NCI In Vivo Anticancer Drug Screen. Data for tumor model Ependymoblastoma (intracerebral) in C57BL/6 mice
Details: endpoint: median survival time, higher = longer survival
Method: The antitumor activity of compounds was measured in mice bearing transplantable tumors. Survival or tumor size were measured and the results are expressed as the measurement made in the treated group (T) divided by the measurement made in the vehicle treated control group (C). The tumor model used in this assay is Ependymoblastoma (intracerebral) in C57BL/6 mice

[1] = dose: 4.0 mg/kg/injection, schedule: Q01DX005 (ip), vehicle: saline
[2] = dose: 8.0 mg/kg/injection, schedule: Q01DX005 (ip), vehicle: saline
[3] = dose: 32.0 mg/kg/injection, schedule: Q01DX005 (ip), vehicle: saline
[4] = dose: 16.0 mg/kg/injection, schedule: Q01DX005 (ip), vehicle: saline

**Q.** Which results are given for CCCN(C)C(=O)N(CCCl)N=O?
**A.** T/C (dose: 39.0 mg/kg/injection, schedule: Q01DX001 (ip), vehicle: other): 182 % of control; T/C (dose: 62.5 mg/kg/injection, schedule: Q01DX001 (ip), vehicle: other): 309 % of control; T/C (dose: 78.0 mg/kg/injection, schedule: Q01DX001 (ip), vehicle: other): 227 % of control; T/C (dose: 125.0 mg/kg/injection, schedule: Q01DX001 (ip), vehicle: other): 309 % of control; T/C (dose: 156.0 mg/kg/injection, schedule: Q01DX001 (ip), vehicle: other): 308 % of control

**Q.** With OCCN1CCN(CC/C=C2/c3ccccc3Sc3ccc(C(F)(F)F)cc32)CC1 as the compound, how does the T/C (dose: 12.5 mg/kg/injection, schedule: Q04DX003 (ip), vehicle: saline) read?
**A.** 115 % of control

**Q.** And the T/C (dose: 25.0 mg/kg/injection, schedule: Q04DX003 (ip), vehicle: saline)?
**A.** 117 % of control

**Q.** C[CH2][Ge]1([CH2]C)[CH2]CC2(CCN(CCCN(C)C)C2)C[CH2]1 was tested. Which T/C [1] did it give?
**A.** 104 % of control

**Q.** What about the T/C [2] of the same compound?
**A.** 98 % of control and 101 % of control and 108 % of control

**Q.** How did the T/C [3] turn out when O=[N+]([O-])O.[Ga] was run?
**A.** 110 % of control

**Q.** For COS(C)(=O)=O, which T/C [4] is on record?
**A.** 113 % of control

**Q.** Which T/C (dose: 8.0 mg/kg/injection, schedule: Q01DX001 (ip), vehicle: saline with Tween-80) does the source give for CC1CCC(NC(=O)N(CCCl)N=O)CC1 (centres undefined) here?
**A.** 99 % of control

**Q.** And the T/C (dose: 8.0 mg/kg/injection, schedule: Q01DX005 (oral), vehicle: Klucel (hydroxypropylcellulose) (HPC))?
**A.** 156 % of control

**Q.** What about the T/C (dose: 16.0 mg/kg/injection, schedule: Q01DX001 (ip), vehicle: saline with Tween-80) of the same compound?
**A.** 114 % of control

**Q.** And the T/C (dose: 16.0 mg/kg/injection, schedule: Q01DX005 (oral), vehicle: Klucel (hydroxypropylcellulose) (HPC))?
**A.** 151 % of control

**Q.** And the T/C (dose: 32.0 mg/kg/injection, schedule: Q01DX001 (ip), vehicle: saline with Tween-80)?
**A.** 109 % of control

**Q.** What about the T/C (dose: 32.0 mg/kg/injection, schedule: Q01DX001 (oral), vehicle: Klucel (hydroxypropylcellulose) (HPC)) of the same compound?
**A.** 97 % of control

**Q.** And the T/C (dose: 64.0 mg/kg/injection, schedule: Q01DX001 (ip), vehicle: saline with Tween-80)?
**A.** 95 % of control and 109 % of control

**Q.** And the T/C (dose: 64.0 mg/kg/injection, schedule: Q01DX001 (oral), vehicle: Klucel (hydroxypropylcellulose) (HPC))?
**A.** 102 % of control

**Q.** And the T/C (dose: 128.0 mg/kg/injection, schedule: Q01DX001 (ip), vehicle: saline with Tween-80)?
**A.** 98 % of control and 102 % of control

**Q.** What about the T/C (dose: 128.0 mg/kg/injection, schedule: Q01DX001 (oral), vehicle: Klucel (hydroxypropylcellulose) (HPC)) of the same compound?
**A.** 102 % of control

**Q.** And the T/C (dose: 256.0 mg/kg/injection, schedule: Q01DX001 (ip), vehicle: saline with Tween-80)?
**A.** 97 % of control

**Q.** And the T/C (dose: 256.0 mg/kg/injection, schedule: Q01DX001 (oral), vehicle: Klucel (hydroxypropylcellulose) (HPC))?
**A.** 95 % of control

**Q.** What about the T/C (dose: 512.0 mg/kg/injection, schedule: Q01DX001 (ip), vehicle: saline with Tween-80) of the same compound?
**A.** 92 % of control

**Q.** What about the T/C (dose: 512.0 mg/kg/injection, schedule: Q01DX001 (oral), vehicle: Klucel (hydroxypropylcellulose) (HPC)) of the same compound?
**A.** 90 % of control

**Q.** Which results are given for NNC(=O)c1ccncc1?
**A.** T/C (dose: 28.75 mg/kg/injection, schedule: Q01DX005 (ip), vehicle: saline): 94 % of control; T/C (dose: 57.5 mg/kg/injection, schedule: Q01DX005 (ip), vehicle: saline): 102 % of control; T/C (dose: 115.0 mg/kg/injection, schedule: Q01DX005 (ip), vehicle: saline): 105 % of control

**Q.** For CN(C)CCCNc1c2ccccc2nc2cccc([N+](=O)[O-])c12, which T/C (dose: 0.01 mg/kg/injection, schedule: Q## X006 (ip), vehicle: saline) is on record?
**A.** 99 % of control

**Q.** What about the T/C (dose: 0.03 mg/kg/injection, schedule: Q01DX001 (ip), vehicle: saline) of the same compound?
**A.** 101 % of control

**Q.** What about the T/C (dose: 0.03 mg/kg/injection, schedule: Q## X006 (ip), vehicle: saline) of the same compound?
**A.** 94 % of control

**Q.** What about the T/C (dose: 0.06 mg/kg/injection, schedule: Q01DX001 (ip), vehicle: saline) of the same compound?
**A.** 92 % of control

**Q.** And the T/C (dose: 0.06 mg/kg/injection, schedule: Q01DX005 (ip), vehicle: saline)?
**A.** 99 % of control and 100 % of control and 102 % of control

**Q.** And the T/C (dose: 0.06 mg/kg/injection, schedule: Q#A X002 (ip), vehicle: saline)?
**A.** 101 % of control and 117 % of control

**Q.** What about the T/C (dose: 0.12 mg/kg/injection, schedule: Q01DX001 (ip), vehicle: saline) of the same compound?
**A.** 92 % of control

**Q.** What about the T/C (dose: 0.12 mg/kg/injection, schedule: Q01DX005 (ip), vehicle: saline) of the same compound?
**A.** 98 % of control

**Q.** What about the T/C (dose: 0.12 mg/kg/injection, schedule: Q#A X002 (ip), vehicle: saline) of the same compound?
**A.** 106 % of control and 111 % of control

**Q.** And the T/C (dose: 0.13 mg/kg/injection, schedule: Q01DX005 (ip), vehicle: saline)?
**A.** 94 % of control

**Q.** And the T/C (dose: 0.25 mg/kg/injection, schedule: Q01DX001 (ip), vehicle: saline)?
**A.** 91 % of control

**Q.** What about the T/C (dose: 0.25 mg/kg/injection, schedule: Q#A X002 (ip), vehicle: saline) of the same compound?
**A.** 88 % of control and 101 % of control

**Q.** And the T/C (dose: 0.5 mg/kg/injection, schedule: Q01DX001 (oral), vehicle: saline)?
**A.** 95 % of control

**Q.** And the T/C (dose: 0.5 mg/kg/injection, schedule: Q#A X002 (ip), vehicle: saline)?
**A.** 94 % of control and 100 % of control

**Q.** What about the T/C (dose: 1.0 mg/kg/injection, schedule: Q01DX001 (oral), vehicle: suspension in saline) of the same compound?
**A.** 100 % of control

**Q.** And the T/C (dose: 1.0 mg/kg/injection, schedule: Q#A X002 (ip), vehicle: saline)?
**A.** 87 % of control and 91 % of control

**Q.** And the T/C (dose: 2.0 mg/kg/injection, schedule: Q01DX001 (ip), vehicle: saline)?
**A.** 89 % of control

**Q.** What about the T/C (dose: 2.0 mg/kg/injection, schedule: Q01DX001 (oral), vehicle: saline) of the same compound?
**A.** 104 % of control

**Q.** And the T/C (dose: 2.0 mg/kg/injection, schedule: Q01DX001 (oral), vehicle: suspension in saline)?
**A.** 100 % of control

**Q.** And the T/C (dose: 2.0 mg/kg/injection, schedule: Q#A X002 (ip), vehicle: saline)?
**A.** 87 % of control

**Q.** What about the T/C (dose: 4.0 mg/kg/injection, schedule: Q01DX001 (ip), vehicle: saline) of the same compound?
**A.** 87 % of control

**Q.** What about the T/C (dose: 4.0 mg/kg/injection, schedule: Q01DX001 (oral), vehicle: suspension in saline) of the same compound?
**A.** 91 % of control

**Q.** And the T/C (dose: 8.0 mg/kg/injection, schedule: Q01DX001 (oral), vehicle: saline)?
**A.** 96 % of control

**Q.** What about the T/C (dose: 8.0 mg/kg/injection, schedule: Q01DX001 (oral), vehicle: suspension in saline) of the same compound?
**A.** 96 % of control

**Q.** And the T/C (dose: 16.0 mg/kg/injection, schedule: Q01DX001 (oral), vehicle: suspension in saline)?
**A.** 91 % of control

**Q.** And the T/C (dose: 3.9 micrograms/kg/injection, schedule: Q## X006 (ip), vehicle: saline)?
**A.** 97 % of control

**Q.** What about the T/C (dose: 7.8 micrograms/kg/injection, schedule: Q01DX005 (ip), vehicle: saline) of the same compound?
**A.** 103 % of control

**Q.** What about the T/C (dose: 7.8 micrograms/kg/injection, schedule: Q## X006 (ip), vehicle: saline) of the same compound?
**A.** 97 % of control

**Q.** What about the T/C (dose: 15.6 micrograms/kg/injection, schedule: Q01DX005 (ip), vehicle: saline) of the same compound?
**A.** 110 % of control

**Q.** And the T/C (dose: 15.6 micrograms/kg/injection, schedule: Q## X006 (ip), vehicle: saline)?
**A.** 92 % of control

**Q.** And the T/C (dose: 16.0 micrograms/kg/injection, schedule: Q01DX005 (ip), vehicle: saline)?
**A.** 102 % of control and 113 % of control

**Q.** What about the T/C (dose: 31.2 micrograms/kg/injection, schedule: Q## X006 (ip), vehicle: saline) of the same compound?
**A.** 95 % of control

**Q.** And the T/C (dose: 32.0 micrograms/kg/injection, schedule: Q01DX005 (ip), vehicle: saline)?
**A.** 104 % of control and 111 % of control

**Q.** What about the T/C (dose: 62.5 micrograms/kg/injection, schedule: Q01DX005 (ip), vehicle: saline) of the same compound?
**A.** 107 % of control and 109 % of control

**Q.** And the T/C (dose: 62.5 micrograms/kg/injection, schedule: Q## X006 (ip), vehicle: saline)?
**A.** 97 % of control

**Q.** And the T/C (dose: 63.0 micrograms/kg/injection, schedule: Q01DX005 (ip), vehicle: saline)?
**A.** 103 % of control and 105 % of control

**Q.** CO[C@H]1C[C@@H]2CC[C@@H](C)[C@@](O)(O2)C(=O)C(=O)N2CCCC[C@H]2C(=O)O[C@H]([C@H](C)C[C@@H]2CC[C@@H](O)[C@H](OC)C2)CC(=O)[C@H](C)C=C(C)[C@@H](O)[C@@H](OC)C(=O)[C@H](C)C[C@H](C)/C=C/C=C/C=C1C was tested. Which T/C (dose: 3.12 mg/kg/injection, schedule: Q01DX009 (ip), vehicle: saline with Tween-80) did it give?
**A.** 111 % of control

**Q.** And the T/C (dose: 6.25 mg/kg/injection, schedule: Q01DX009 (ip), vehicle: saline with Tween-80)?
**A.** 120 % of control

**Q.** What about the T/C (dose: 100.0 mg/kg/injection, schedule: Q01DX009 (ip), vehicle: saline with Tween-80) of the same compound?
**A.** 157 % of control

**Q.** What about the T/C (dose: 200.0 mg/kg/injection, schedule: Q01DX009 (ip), vehicle: saline with Tween-80) of the same compound?
**A.** 92 % of control

**Q.** With CCN(CC)CCNc1ccc(CO)c2sc3ccccc3c(=O)c12 as the compound, how does the T/C (dose: 2.0 mg/kg/injection, schedule: Q01DX005 (ip), vehicle: saline) read?
**A.** 94 % of control

**Q.** What about the T/C [1] of the same compound?
**A.** 104 % of control

**Q.** And the T/C [2]?
**A.** 104 % of control

**Q.** And the T/C [4]?
**A.** 101 % of control

**Q.** What about the T/C [3] of the same compound?
**A.** 111 % of control

**Q.** And the T/C (dose: 64.0 mg/kg/injection, schedule: Q01DX005 (ip), vehicle: saline)?
**A.** 119 % of control
